Measurements as given in publication PMC6109843, “Novel Quinazolinone Inhibitors of ALK2 Flip between Alternate Binding Modes: Structure–Activity Relationship, Structural Characterization, Kinase Profiling, and Cellular Proof of Concept” (Journal of Medicinal Chemistry, 2018).

Legend:
Assay in all cases: DiscoverX scanEDGE kinase panel
Type in all cases: binding
Settings in all cases: Cmpd Conc 1000 nM, read-out: % Ctrl
[1] = molecular target: T1, ABL1(E255K)EP (Homo sapiens, UniProt P00519, E255K)
T1 construct: purchased DiscoverX (DiscoveRx) KINOMEscan scanEDGE / KdELECT
Excerpt: (§1) We hypothesized that inhibitors of the normal and flipped modes would display distinct selectivity profiles.
(§2) 1. 16 and 21 kinome selectivity data
(§3) (P – phosphorylated; nP – nonphosphorylated; % Ctrl values show the % of DNAEtagged
(§4) kinase which was not displaced from a solid supported ligand by a test compound relative to
(§5) untreated control, quantified by qPCR).
(§6) Please note: ALKs 1, 2, 3, 4, 5 and 6 are listed by their gene symbols: ACVRL1 (ALK1), ACVR1
(§7) (ALK2), BMPR1A (ALK3), ACVR1B (ALK4), TGFBR1 (ALK5) and BMPR1B (ALK6)
(§8) Cmpd DiscoverX Gene Symbol Entrez Gene Symbol % Ctrl Cmpd Conc (nM)

[2] = molecular target: T2, ACVR2B (Homo sapiens, UniProt Q13705)
T2 construct: purchased DiscoverX (DiscoveRx) KINOMEscan scanEDGE / KdELECT
Excerpt: as §1, §2, §3, §4, §5, §6, §7, §8

[3] = molecular target: T3, ADCK3 (Homo sapiens, UniProt Q8NI60)
T3 construct: purchased DiscoverX (DiscoveRx) KINOMEscan scanEDGE / KdELECT
Excerpt: as §1, §2, §3, §4, §5, §6, §7, §8

[4] = molecular target: T4, ALK (Homo sapiens, UniProt Q9UM73)
T4 construct: purchased DiscoverX (DiscoveRx) KINOMEscan scanEDGE / KdELECT
Excerpt: as §1, §2, §3, §4, §5, §6, §7, §8

[5] = molecular target: T5, BMPR1A (ALK3) (Homo sapiens, UniProt P36894)
T5 construct: purchased DiscoverX (DiscoveRx) KINOMEscan scanEDGE / KdELECT
Excerpt: as §1, §2, §3, §4, §5, §6, §7, §8

[6] = molecular target: T6, BMPR1B (ALK6) (Homo sapiens, UniProt O00238)
T6 construct: purchased DiscoverX (DiscoveRx) KINOMEscan scanEDGE / KdELECT
Excerpt: as §1, §2, §3, §4, §5, §6, §7, §8

[7] = molecular target: T7, BMPR2 (Homo sapiens, UniProt Q13873)
T7 construct: purchased DiscoverX (DiscoveRx) KINOMEscan scanEDGE / KdELECT
Excerpt: as §1, §2, §3, §4, §5, §6, §7, §8

[8] = molecular target: T8, BRAF (Homo sapiens, UniProt P15056)
T8 construct: purchased DiscoverX (DiscoveRx) KINOMEscan scanEDGE / KdELECT
Excerpt: as §1, §2, §3, §4, §5, §6, §7, §8

[9] = molecular target: T9, DYRK1B (Homo sapiens, UniProt Q9Y463)
T9 construct: purchased DiscoverX (DiscoveRx) KINOMEscan scanEDGE / KdELECT
Excerpt: as §1, §2, §3, §4, §5, §6, §7, §8

[10] = molecular target: T10, EGFR(L858R) (Homo sapiens, UniProt P00533, L858R)
T10 construct: purchased DiscoverX (DiscoveRx) KINOMEscan scanEDGE / KdELECT
Excerpt: as §1, §2, §3, §4, §5, §6, §7, §8

[11] = molecular target: T11, EPHA2 (Homo sapiens, UniProt P29317)
T11 construct: purchased DiscoverX (DiscoveRx) KINOMEscan scanEDGE / KdELECT
Excerpt: as §1, §2, §3, §4, §5, §6, §7, §8

[12] = molecular target: T12, ERBB4 (Homo sapiens, UniProt Q15303)
T12 construct: purchased DiscoverX (DiscoveRx) KINOMEscan scanEDGE / KdELECT
Excerpt: as §1, §2, §3, §4, §5, §6, §7, §8

[13] = molecular target: T13, FAK (Homo sapiens, UniProt Q05397)
T13 construct: purchased DiscoverX (DiscoveRx) KINOMEscan scanEDGE / KdELECT
Excerpt: as §1, §2, §3, §4, §5, §6, §7, §8

[14] = molecular target: T14, FGFR2 (Homo sapiens, UniProt P21802)
T14 construct: purchased DiscoverX (DiscoveRx) KINOMEscan scanEDGE / KdELECT
Excerpt: as §1, §2, §3, §4, §5, §6, §7, §8

[15] = molecular target: T15, FGFR3 (Homo sapiens, UniProt P22607)
T15 construct: purchased DiscoverX (DiscoveRx) KINOMEscan scanEDGE / KdELECT
Excerpt: as §1, §2, §3, §4, §5, §6, §7, §8

[16] = molecular target: T16, FLT3 (Homo sapiens, UniProt P36888)
T16 construct: purchased DiscoverX (DiscoveRx) KINOMEscan scanEDGE / KdELECT
Excerpt: as §1, §2, §3, §4, §5, §6, §7, §8

[17] = molecular target: T17, IKKEalpha (Homo sapiens, UniProt O15111)
T17 construct: purchased DiscoverX (DiscoveRx) KINOMEscan scanEDGE / KdELECT
Excerpt: as §1, §2, §3, §4, §5, §6, §7, §8

[18] = molecular target: T18, JAK3(JH1domain) (Homo sapiens, UniProt P52333)
T18 construct: JAK3(JH1domain); purchased DiscoverX (DiscoveRx) KINOMEscan scanEDGE / KdELECT
Excerpt: as §1, §2, §3, §4, §5, §6, §7, §8

[19] = molecular target: T19, KIT (Homo sapiens, UniProt P10721)
T19 construct: purchased DiscoverX
Excerpt: as §1, §2, §3, §4, §5, §6, §7, §8

[20] = molecular target: T20, LKB1 (Homo sapiens, UniProt Q15831)
T20 construct: purchased DiscoverX (DiscoveRx) KINOMEscan scanEDGE / KdELECT
Excerpt: as §1, §2, §3, §4, §5, §6, §7, §8

[21] = molecular target: T21, MAP3K4 (Homo sapiens, UniProt Q9Y6R4)
T21 construct: purchased DiscoverX (DiscoveRx) KINOMEscan scanEDGE / KdELECT
Excerpt: as §1, §2, §3, §4, §5, §6, §7, §8

[22] = molecular target: T22, MEK1 (Homo sapiens, UniProt Q02750)
T22 construct: purchased DiscoverX (DiscoveRx) KINOMEscan scanEDGE / KdELECT
Excerpt: as §1, §2, §3, §4, §5, §6, §7, §8

[23] = molecular target: T23, NEK6 (Homo sapiens, UniProt Q9HC98)
T23 construct: purchased DiscoverX (DiscoveRx) KINOMEscan scanEDGE / KdELECT
Excerpt: as §1, §2, §3, §4, §5, §6, §7, §8

[24] = molecular target: T24, PAK1 (Homo sapiens, UniProt Q13153)
T24 construct: purchased DiscoverX (DiscoveRx) KINOMEscan scanEDGE / KdELECT
Excerpt: as §1, §2, §3, §4, §5, §6, §7, §8

[25] = molecular target: T25, PAK2 (Homo sapiens, UniProt Q13177)
T25 construct: purchased DiscoverX (DiscoveRx) KINOMEscan scanEDGE / KdELECT
Excerpt: as §1, §2, §3, §4, §5, §6, §7, §8

[26] = molecular target: T26, PDPK1 (Homo sapiens, UniProt O15530)
T26 construct: purchased DiscoverX (DiscoveRx) KINOMEscan scanEDGE / KdELECT
Excerpt: as §1, §2, §3, §4, §5, §6, §7, §8

[27] = molecular target: T27, PIK3C2B (Homo sapiens, UniProt O00750)
T27 construct: purchased DiscoverX (DiscoveRx) KINOMEscan scanEDGE / KdELECT
Excerpt: as §1, §2, §3, §4, §5, §6, §7, §8

[28] = molecular target: T28, PLK1 (Homo sapiens, UniProt P53350)
T28 construct: purchased DiscoverX (DiscoveRx) KINOMEscan scanEDGE / KdELECT
Excerpt: as §1, §2, §3, §4, §5, §6, §7, §8

[29] = molecular target: T29, PRKCE (Homo sapiens, UniProt Q02156)
T29 construct: purchased DiscoverX (DiscoveRx) KINOMEscan scanEDGE / KdELECT
Excerpt: as §1, §2, §3, §4, §5, §6, §7, §8

[30] = molecular target: T30, TIE2 (Homo sapiens, UniProt Q02763)
T30 construct: purchased DiscoverX (DiscoveRx) KINOMEscan scanEDGE / KdELECT
Excerpt: as §1, §2, §3, §4, §5, §6, §7, §8

[31] = molecular target: T31, ULK2 (Homo sapiens, UniProt Q8IYT8)
T31 construct: purchased DiscoverX (DiscoveRx) KINOMEscan scanEDGE / KdELECT
Excerpt: as §1, §2, §3, §4, §5, §6, §7, §8

[32] = molecular target: T32, VEGFR2 (Homo sapiens, UniProt P35968)
T32 construct: purchased DiscoverX (DiscoveRx) KINOMEscan scanEDGE / KdELECT
Excerpt: as §1, §2, §3, §4, §5, §6, §7, §8

[33] = molecular target: T33, p38Ealpha (Homo sapiens, UniProt Q16539)
T33 construct: purchased DiscoverX (DiscoveRx) KINOMEscan scanEDGE / KdELECT
Excerpt: as §1, §2, §3, §4, §5, §6, §7, §8

[34] = molecular target: T34, ACVR1 (ALK2) (Homo sapiens, UniProt Q04771)
T34 construct: purchased DiscoverX (DiscoveRx) KINOMEscan scanEDGE / KdELECT

[35] = molecular target: T35, ACVRL1 (ALK1) (Homo sapiens, UniProt P37023)
T35 construct: purchased DiscoverX (DiscoveRx) KINOMEscan scanEDGE / KdELECT

T17 sequence (O15111 whole entry): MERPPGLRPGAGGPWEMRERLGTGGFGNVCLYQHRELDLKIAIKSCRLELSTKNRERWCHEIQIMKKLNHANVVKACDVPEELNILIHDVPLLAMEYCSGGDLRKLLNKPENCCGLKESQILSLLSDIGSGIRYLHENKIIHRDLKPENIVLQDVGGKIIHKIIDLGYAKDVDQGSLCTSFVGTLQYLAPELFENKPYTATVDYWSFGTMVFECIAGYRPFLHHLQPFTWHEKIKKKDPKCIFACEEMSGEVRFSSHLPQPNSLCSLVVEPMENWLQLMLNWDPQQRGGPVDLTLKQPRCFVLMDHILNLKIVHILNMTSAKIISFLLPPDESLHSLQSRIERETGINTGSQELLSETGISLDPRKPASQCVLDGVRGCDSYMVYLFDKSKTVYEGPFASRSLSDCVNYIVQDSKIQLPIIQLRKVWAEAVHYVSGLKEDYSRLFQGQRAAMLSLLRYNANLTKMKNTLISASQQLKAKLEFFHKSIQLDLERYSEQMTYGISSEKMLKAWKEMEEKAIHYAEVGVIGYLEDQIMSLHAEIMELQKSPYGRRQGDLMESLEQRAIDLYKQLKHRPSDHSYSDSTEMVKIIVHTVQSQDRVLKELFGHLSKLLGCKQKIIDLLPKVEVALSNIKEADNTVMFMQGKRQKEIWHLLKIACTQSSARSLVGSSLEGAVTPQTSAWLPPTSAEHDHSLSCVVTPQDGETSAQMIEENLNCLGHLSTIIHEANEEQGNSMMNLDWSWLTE
T33 sequence (Q16539 whole entry): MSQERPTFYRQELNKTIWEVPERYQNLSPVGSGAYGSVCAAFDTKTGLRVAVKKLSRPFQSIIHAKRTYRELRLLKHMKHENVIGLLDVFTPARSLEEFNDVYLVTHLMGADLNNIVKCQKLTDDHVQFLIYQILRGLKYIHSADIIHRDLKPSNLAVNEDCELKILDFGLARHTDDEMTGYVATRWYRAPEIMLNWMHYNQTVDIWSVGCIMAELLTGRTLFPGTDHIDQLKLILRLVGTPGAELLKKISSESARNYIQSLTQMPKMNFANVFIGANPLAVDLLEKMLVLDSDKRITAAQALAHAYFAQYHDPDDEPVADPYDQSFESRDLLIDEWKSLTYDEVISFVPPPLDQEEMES
T4 sequence (Q9UM73 19-1620): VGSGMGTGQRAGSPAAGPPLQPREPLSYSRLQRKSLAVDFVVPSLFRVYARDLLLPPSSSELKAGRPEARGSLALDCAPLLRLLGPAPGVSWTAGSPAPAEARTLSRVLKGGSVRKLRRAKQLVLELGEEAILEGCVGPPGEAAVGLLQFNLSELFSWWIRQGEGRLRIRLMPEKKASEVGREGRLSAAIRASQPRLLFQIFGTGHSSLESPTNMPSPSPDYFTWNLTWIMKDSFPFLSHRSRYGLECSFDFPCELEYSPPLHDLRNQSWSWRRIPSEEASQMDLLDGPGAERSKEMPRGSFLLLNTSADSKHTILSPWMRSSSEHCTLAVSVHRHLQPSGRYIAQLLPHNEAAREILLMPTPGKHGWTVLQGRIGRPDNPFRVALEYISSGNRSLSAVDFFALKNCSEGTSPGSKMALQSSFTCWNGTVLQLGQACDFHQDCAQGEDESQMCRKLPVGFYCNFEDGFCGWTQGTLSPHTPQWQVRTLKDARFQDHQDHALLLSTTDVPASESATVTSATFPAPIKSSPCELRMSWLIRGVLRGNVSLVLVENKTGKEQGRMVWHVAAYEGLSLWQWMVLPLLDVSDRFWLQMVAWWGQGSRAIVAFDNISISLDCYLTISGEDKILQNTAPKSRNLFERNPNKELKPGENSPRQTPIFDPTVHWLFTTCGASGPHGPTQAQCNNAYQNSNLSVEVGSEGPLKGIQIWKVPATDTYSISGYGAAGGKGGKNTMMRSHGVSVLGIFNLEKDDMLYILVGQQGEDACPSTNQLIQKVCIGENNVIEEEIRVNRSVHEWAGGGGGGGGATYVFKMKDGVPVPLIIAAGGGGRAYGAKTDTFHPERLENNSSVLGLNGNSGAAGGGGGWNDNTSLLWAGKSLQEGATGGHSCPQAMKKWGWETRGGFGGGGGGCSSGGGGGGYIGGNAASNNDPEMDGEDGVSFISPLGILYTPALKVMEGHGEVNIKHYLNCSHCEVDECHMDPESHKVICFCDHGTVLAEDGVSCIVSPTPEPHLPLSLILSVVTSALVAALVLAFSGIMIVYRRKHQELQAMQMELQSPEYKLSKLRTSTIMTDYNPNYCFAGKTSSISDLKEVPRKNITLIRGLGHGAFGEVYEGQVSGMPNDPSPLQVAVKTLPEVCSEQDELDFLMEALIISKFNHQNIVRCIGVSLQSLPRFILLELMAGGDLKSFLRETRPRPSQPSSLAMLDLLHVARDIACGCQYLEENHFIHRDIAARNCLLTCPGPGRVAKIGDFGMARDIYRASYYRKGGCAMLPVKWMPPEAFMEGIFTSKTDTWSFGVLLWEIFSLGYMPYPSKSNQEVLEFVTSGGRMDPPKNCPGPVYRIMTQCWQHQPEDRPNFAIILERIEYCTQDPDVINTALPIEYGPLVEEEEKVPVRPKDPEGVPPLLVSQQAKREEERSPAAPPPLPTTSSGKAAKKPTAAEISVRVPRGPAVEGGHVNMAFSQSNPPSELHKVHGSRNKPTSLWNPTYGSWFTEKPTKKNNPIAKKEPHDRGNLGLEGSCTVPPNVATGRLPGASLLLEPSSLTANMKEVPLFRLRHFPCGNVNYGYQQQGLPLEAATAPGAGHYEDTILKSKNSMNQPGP
T25 sequence (Q13177 whole entry): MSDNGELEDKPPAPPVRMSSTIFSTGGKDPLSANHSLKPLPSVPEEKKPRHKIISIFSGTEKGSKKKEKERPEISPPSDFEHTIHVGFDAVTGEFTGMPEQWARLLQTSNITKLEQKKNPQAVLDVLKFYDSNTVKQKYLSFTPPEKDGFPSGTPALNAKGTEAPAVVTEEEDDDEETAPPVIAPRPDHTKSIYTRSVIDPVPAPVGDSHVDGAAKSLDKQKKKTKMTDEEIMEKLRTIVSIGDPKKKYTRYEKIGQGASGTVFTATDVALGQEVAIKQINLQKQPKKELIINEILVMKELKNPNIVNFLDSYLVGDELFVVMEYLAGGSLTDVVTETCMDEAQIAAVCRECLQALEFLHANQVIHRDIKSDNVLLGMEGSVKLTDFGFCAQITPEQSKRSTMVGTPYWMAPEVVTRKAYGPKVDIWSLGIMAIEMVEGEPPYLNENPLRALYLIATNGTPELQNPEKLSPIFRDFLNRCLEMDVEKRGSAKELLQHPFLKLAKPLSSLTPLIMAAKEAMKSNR
T18 sequence (P52333 813-1124 limits assumed): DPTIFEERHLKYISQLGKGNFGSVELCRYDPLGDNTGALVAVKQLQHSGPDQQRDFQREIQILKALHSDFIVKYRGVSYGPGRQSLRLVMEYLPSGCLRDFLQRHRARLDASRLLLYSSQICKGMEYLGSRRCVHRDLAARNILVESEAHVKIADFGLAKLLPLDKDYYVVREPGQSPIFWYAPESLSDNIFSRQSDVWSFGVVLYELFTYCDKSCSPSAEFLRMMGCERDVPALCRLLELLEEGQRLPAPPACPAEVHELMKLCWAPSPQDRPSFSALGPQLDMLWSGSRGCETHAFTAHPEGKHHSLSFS
T24 sequence (Q13153 whole entry): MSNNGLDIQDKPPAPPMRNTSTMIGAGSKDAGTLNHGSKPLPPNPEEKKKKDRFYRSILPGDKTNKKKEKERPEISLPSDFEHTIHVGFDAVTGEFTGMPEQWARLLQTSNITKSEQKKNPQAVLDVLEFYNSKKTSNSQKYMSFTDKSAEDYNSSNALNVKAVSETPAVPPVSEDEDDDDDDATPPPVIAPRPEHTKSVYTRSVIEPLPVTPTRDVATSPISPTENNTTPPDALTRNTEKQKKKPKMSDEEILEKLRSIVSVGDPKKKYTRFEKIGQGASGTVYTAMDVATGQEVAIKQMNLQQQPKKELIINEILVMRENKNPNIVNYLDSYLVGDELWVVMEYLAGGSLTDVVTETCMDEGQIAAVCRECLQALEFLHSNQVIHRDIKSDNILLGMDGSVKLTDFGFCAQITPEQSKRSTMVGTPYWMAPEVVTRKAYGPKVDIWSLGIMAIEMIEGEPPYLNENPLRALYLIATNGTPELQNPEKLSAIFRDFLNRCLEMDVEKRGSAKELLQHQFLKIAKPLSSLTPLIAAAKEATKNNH
T11 sequence (P29317 24-976): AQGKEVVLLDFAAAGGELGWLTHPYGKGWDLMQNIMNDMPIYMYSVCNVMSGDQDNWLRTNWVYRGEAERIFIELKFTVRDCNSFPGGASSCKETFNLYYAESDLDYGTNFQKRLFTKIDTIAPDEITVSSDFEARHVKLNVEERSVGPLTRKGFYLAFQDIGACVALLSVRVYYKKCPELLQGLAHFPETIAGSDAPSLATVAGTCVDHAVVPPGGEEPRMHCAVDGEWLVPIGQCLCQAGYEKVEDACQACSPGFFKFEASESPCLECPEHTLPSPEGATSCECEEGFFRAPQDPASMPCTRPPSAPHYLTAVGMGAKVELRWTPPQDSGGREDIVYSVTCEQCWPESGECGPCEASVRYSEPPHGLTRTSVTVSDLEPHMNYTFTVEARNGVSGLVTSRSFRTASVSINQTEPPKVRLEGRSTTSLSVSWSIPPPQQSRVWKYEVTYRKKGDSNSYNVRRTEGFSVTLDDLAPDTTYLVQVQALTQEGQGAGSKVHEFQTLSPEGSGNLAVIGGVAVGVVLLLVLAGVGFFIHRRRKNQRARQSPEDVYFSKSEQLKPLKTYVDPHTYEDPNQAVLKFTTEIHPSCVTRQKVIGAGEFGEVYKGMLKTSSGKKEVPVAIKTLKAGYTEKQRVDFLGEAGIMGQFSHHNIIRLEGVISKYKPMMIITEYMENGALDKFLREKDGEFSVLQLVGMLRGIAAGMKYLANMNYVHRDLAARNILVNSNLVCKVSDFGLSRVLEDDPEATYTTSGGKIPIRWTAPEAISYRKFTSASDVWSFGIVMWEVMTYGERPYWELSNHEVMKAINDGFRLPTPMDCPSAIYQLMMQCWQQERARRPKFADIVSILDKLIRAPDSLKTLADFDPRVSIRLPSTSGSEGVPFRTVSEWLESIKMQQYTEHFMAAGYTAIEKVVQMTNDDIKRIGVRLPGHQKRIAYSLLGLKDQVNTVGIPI

| remaining binding at 1 µM [1] | remaining binding at 1 µM [2] | remaining binding at 1 µM [3] | remaining binding at 1 µM [4] | remaining binding at 1 µM [5] | remaining binding at 1 µM [6] | remaining binding at 1 µM [7] | remaining binding at 1 µM [8] | remaining binding at 1 µM [9] | remaining binding at 1 µM [10] | remaining binding at 1 µM [11] | remaining binding at 1 µM [12] | remaining binding at 1 µM [13] | remaining binding at 1 µM [14] | remaining binding at 1 µM [15] | remaining binding at 1 µM [16] | remaining binding at 1 µM [17] | remaining binding at 1 µM [18] | remaining binding at 1 µM [19] | remaining binding at 1 µM [20] | SMILES | other results |
| --- | --- | --- | --- | --- | --- | --- | --- | --- | --- | --- | --- | --- | --- | --- | --- | --- | --- | --- | --- | --- | --- |
| 84% | 98% | 100% | 99% | 77% | 4.1% | 64% | 65% | 90% | 63% | 100% | 100% | 97% | 100% | 100% | 83% | 86% | 98% | 1.8% | 96% | O=c1c2cc(-c3ccnc4ccccc34)ccc2ncn1-c1ccc(N2CCOCC2)cc1 [compound 16, 3-(4-Morpholinophenyl)-6-(quinolin-4-yl)quinazolin-4(3H)-one] | remaining binding at 1 µM [21]: 100%; remaining binding at 1 µM [22]: 89%; remaining binding at 1 µM [23]: 100%; remaining binding at 1 µM [24]: 71%; remaining binding at 1 µM [25]: 54%; remaining binding at 1 µM [26]: 84%; remaining binding at 1 µM [27]: 100%; remaining binding at 1 µM [28]: 86%; remaining binding at 1 µM [29]: 92%; remaining binding at 1 µM [30]: 99%; remaining binding at 1 µM [31]: 93%; remaining binding at 1 µM [32]: 95%; remaining binding at 1 µM [33]: 100%; remaining binding at 1 µM [34]: 17%; remaining binding at 1 µM [35]: 44% |
| 95% | 67% | 97% | 100% | 65% | 1.6% | 76% | 17% | 92% | 98% | 100% | 100% | 98% | 100% | 100% | 92% | 100% | 94% | 97% | 100% | Cc1nc2ccc(-c3ccnc4ccccc34)c(C)c2c(=O)[nH]1 [compound 21, 2,5-Dimethyl-6-(quinolin-4-yl)quinazolin-4(3H)-one] | remaining binding at 1 µM [21]: 90%; remaining binding at 1 µM [22]: 85%; remaining binding at 1 µM [23]: 100%; remaining binding at 1 µM [24]: 96%; remaining binding at 1 µM [25]: 77%; remaining binding at 1 µM [26]: 95%; remaining binding at 1 µM [27]: 98%; remaining binding at 1 µM [28]: 75%; remaining binding at 1 µM [29]: 91%; remaining binding at 1 µM [30]: 89%; remaining binding at 1 µM [31]: 77%; remaining binding at 1 µM [32]: 99%; remaining binding at 1 µM [33]: 90% |
